# Reference: publication PMC12377313, “New 1E,1′E-hydrazine-bis(phenoxy-1,2,3-triazol-acetamide) derivatives as potent inhibitors against acetylcholinesterase, butyrylcholinesterase, and α-glucosidase” (RSC Advances, 2025)
# Where two headings read alike, the source gives them in different places.
# Assays:
# AChE = AChE (Homo sapiens, UniProt P22303); experiment: biochemical; assay type: biochemical
# BChE = BChE (Homo sapiens, UniProt P06276); experiment: biochemical
# [1] = tested on: HEK293 embryonic kidney cells; experiment: MTT cell viability assay, HEK293; assay type: cell-based; details: Homo sapiens, read-out: IC50 (μM) HEK-293
# Method: The human neuroblastoma cell line SH-SY5Y (ATCC® CRL-2266™) and HEK293 (ATCC® CRL-1573™) human embryonic kidney cells were grown in Dulbecco's Modified Eagle Medium/Nutrient Mixture F-12 (DMEM/F-12) culture containing 10% heat-inactivated fetal bovine serum (FBS) and 1% antibiotics. The cells were incubated at 37 °C in a humidified atmosphere of 5% CO2. Both cell lines were provided by the American Type Culture Collection (ATCC).[30,31]
# SH-SY5Y (ATCC® CRL-2266™) and HEK293 (ATCC® CRL-1573™) cells were seeded into 96-well plates at a density of 5 × 10^3 cells per well, and allowed to adhere overnight in a humidified incubator at 37 °C with 5% CO2. After attachment, the cells were treated with eight different concentrations of the target compounds (200, 100, 50, 25, 12.5, 6.25, 3.125, and 1.5625 μM), prepared via serial 1 : 2 dilutions, for 24 hours. Each concentration was tested in triplicate.
# (§1) Following treatment, 10 μL of MTT solution (5 mg mL^−1 in PBS) was added to each well and incubated for an additional 4 hours under the same conditions. At the end of the incubation period, the medium containing MTT was carefully removed, and the formazan crystals formed by viable cells were solubilized in 100 μL of DMSO per well. The absorbance was measured at 570 nm using a microplate reader. The net absorbance (after blank subtraction) was used to calculate the percentage cell viability relative to the untreated control cells, which was set at 100%. All results were expressed as mean ± standard deviation (SD) of three independent experiments.[32,33]
# α-glucosidase = α-glucosidase (Saccharomyces cerevisiae, UniProt P53341); experiment: α-Glucosidase inhibition assay (p-NPG substrate); assay type: biochemical, yeast
# Chain of α-glucosidase (P53341 whole entry): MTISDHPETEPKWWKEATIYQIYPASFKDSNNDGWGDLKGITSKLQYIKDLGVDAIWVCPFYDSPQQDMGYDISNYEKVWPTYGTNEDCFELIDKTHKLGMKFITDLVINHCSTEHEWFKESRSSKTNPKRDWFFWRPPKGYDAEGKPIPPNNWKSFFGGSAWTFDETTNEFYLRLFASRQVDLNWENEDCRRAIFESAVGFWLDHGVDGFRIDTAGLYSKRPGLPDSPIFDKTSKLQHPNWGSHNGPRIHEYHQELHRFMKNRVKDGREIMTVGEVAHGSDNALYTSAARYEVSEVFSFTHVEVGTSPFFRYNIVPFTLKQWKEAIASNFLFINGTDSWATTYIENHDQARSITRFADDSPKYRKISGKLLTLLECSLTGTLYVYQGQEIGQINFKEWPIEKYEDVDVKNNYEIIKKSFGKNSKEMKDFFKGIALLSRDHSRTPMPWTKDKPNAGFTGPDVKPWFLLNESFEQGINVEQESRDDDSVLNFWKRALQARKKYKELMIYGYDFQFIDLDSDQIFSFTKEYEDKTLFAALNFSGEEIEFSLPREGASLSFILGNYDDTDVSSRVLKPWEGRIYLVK
# Method: For this assay, the yeast form of α-glucosidase was used and p-nitrophenyl-α-D-glycopyranoside (p-NPG) was used as the substrate. The required solutions of these materials were prepared in a phosphate buffer solution (pH of 7.4 and a concentration of 5 mM). […] Subsequently, a mixture containing 200 μL of phosphate solution, 50 μL of the substrate, and 5–200 μL of the sample solution was pre-incubated at 35 °C for 3 min for α-glucosidase.
# [2] = tested on: SH-SY5Y neuroblastoma cells; experiment: MTT cell viability assay, SH-SY5Y; assay type: cell-based, human; details: for Selectivity (selectivity index): HEK293 versus SH-SY5Y; for IC50: read-out: IC50 (μM) SH-SY5Y
# Method: The cells were incubated at 37 °C in a humidified atmosphere of 5% CO2. Both cell lines were provided by the American Type Culture Collection (ATCC).[30,31]
# Each concentration was tested in triplicate.
# as §1
# [3] = HEK293, 24 h treatment, MTT, mean ± SD (n = 3)
# [4] = Homo sapiens, SH-SY5Y, 24 h, 24 h treatment, MTT, mean ± SD (n = 3)
# Chain of BChE (P06276 29-602): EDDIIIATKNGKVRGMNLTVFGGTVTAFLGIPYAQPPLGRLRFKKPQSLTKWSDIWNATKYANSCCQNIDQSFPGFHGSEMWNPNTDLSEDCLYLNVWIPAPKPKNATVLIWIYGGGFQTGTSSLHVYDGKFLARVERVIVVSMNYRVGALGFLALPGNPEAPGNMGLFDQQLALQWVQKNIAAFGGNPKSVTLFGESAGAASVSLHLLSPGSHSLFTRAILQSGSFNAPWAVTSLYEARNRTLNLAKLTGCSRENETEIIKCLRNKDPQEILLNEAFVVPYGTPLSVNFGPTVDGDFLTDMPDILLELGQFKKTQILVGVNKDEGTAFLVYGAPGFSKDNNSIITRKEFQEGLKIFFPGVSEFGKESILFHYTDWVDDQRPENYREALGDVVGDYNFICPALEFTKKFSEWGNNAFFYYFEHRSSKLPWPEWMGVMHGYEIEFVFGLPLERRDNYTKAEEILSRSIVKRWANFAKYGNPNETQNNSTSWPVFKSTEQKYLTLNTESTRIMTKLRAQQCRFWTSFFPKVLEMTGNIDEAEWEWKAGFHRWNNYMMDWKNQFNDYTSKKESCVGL
# Chain of AChE (P22303 32-614): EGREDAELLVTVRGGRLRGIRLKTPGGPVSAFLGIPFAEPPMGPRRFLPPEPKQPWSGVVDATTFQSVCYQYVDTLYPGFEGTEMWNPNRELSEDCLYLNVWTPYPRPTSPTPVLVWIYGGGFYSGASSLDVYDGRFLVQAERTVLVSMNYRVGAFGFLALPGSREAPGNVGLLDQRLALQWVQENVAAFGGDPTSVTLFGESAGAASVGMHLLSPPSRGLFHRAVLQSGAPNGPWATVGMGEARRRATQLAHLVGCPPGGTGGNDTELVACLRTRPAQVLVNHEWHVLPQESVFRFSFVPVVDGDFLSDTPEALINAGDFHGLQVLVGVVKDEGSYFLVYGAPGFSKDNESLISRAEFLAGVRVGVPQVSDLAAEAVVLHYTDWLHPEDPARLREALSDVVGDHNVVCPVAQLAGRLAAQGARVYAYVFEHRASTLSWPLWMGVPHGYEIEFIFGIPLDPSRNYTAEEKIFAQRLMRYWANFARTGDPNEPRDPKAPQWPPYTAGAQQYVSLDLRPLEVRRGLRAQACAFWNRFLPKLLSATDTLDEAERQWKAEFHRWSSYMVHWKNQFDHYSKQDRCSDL
SMILES,IC50 (AChE; read-out: IC50 (nM) AChE) [nM],IC50 (BChE) [nM],"IC50 [1, 3] [µM]",IC50 (α-glucosidase) [nM],Selectivity (selectivity index) [2],"IC50 [2, 4] [µM]",IC50 (AChE) [nM],"IC50 ([1]; HEK293, 24 h) [µM]",IC50 (α-glucosidase; read-out: IC50 (nM) α-Glucosidase) [nM],"IC50 ([2]; Homo sapiens, SH-SY5Y, 24 h) [µM]","fold diminished anti-AChE inhibitory activity relative to 10k (AChE; removal of 2-chloro substituent, versus 10k) [fold]",folds more potent than the standard inhibitor acarbose against α-glucosidase (α-glucosidase; relative to acarbose) [fold],"IC50 ([2]; 24 h treatment, MTT, mean ± SD (n = 3)) [µM]"
"Cc1ccccc1NC(=O)Cn1cc(COc2ccc(/C=N/N=C/c3ccc(OCc4cn(CC(=O)Nc5ccccc5C)nn4)cc3)cc2)nn1 [Compound 10a, 2,2′-((((((1E,1′E)-Hydrazine-1,2-diylidenebis(methaneylylidene))bis(4,1-phenylene))bis(oxy))bis(methylene))bis(1H-1,2,3-triazole-4,1-diyl))bis(N-(o-tolyl)acetamide)]",163 ± 5.38,18.4 ± 3.09,78.21 ± 0.42,43.1 ± 8.21,9.5,8.22 ± 0.12,,,,,,,
"CCc1ccc(NC(=O)Cn2cc(COc3ccc(/C=N/N=C/c4ccc(OCc5cn(CC(=O)Nc6ccc(CC)cc6)nn5)cc4)cc3)nn2)cc1 [Compound 10f, 2,2′-((((((1E,1′E)-Hydrazine-1,2-diylidenebis(methaneylylidene))bis(4,1-phenylene))bis(oxy))bis(methylene))bis(1H-1,2,3-triazole-4,1-diyl))bis(N-(4-ethylphenyl)acetamide)]",159 ± 6.17,17 ± 5.46,33.2 ± 0.55,66.4 ± 4.43,4.5,7.33 ± 0.11,,,,,,,
"O=C(Cn1cc(COc2ccc(/C=N/N=C/c3ccc(OCc4cn(CC(=O)Nc5ccccc5[N+](=O)[O-])nn4)cc3)cc2)nn1)Nc1ccccc1[N+](=O)[O-] [Compound 10m, 2,2′-((((((1E,1′E)-Hydrazine-1,2-diylidenebis(methaneylylidene))bis(4,1-phenylene))bis(oxy))bis(methylene))bis(1H-1,2,3-triazole-4,1-diyl))bis(N-(2-nitrophenyl)acetamide)]",,16.9 ± 4.83,,,1.6,,157 ± 8.65,46.45 ± 0.45,36.6 ± 4.86,28.33 ± 0.26,,,
"O=C(Cn1cc(COc2ccc(/C=N/N=C/c3ccc(OCc4cn(CC(=O)Nc5ccc(Cl)cc5)nn4)cc3)cc2)nn1)Nc1ccc(Cl)cc1 [Compound 10j, 2,2′-((((((1E,1′E)-Hydrazine-1,2-diylidenebis(methaneylylidene))bis(4,1-phenylene))bis(oxy))bis(methylene))bis(1H-1,2,3-triazole-4,1-diyl))bis(N-(4-chlorophenyl)acetamide)]",145 ± 6.23,16.4 ± 4.43,67.43 ± 0.47,34.3 ± 3.49,10.0,6.75 ± 0.18,,,,,1.3,1.7,
"Cc1cccc(NC(=O)Cn2cc(COc3ccc(/C=N/N=C/c4ccc(OCc5cn(CC(=O)Nc6cccc(C)c6C)nn5)cc4)cc3)nn2)c1C [Compound 10d, 2,2′-((((((1E,1′E)-Hydrazine-1,2-diylidenebis(methaneylylidene))bis(4,1-phenylene))bis(oxy))bis(methylene))bis(1H-1,2,3-triazole-4,1-diyl))bis(N-(2,3-dimethylphenyl)acetamide)]",131 ± 7.23,14.9 ± 2.08,75.22 ± 0.35,71.2 ± 8.14,4.6,12 to 16,,,,,,,16.4 ± 0.21
"CNC(=O)c1cc(Oc2ccc(NC(=O)Nc3ccc(Cl)c(C(F)(F)F)c3)cc2)ccn1 [Sorafenib, reference compound]",,,16.22 ± 0.14,,,3.88 ± 0.12,,,,,,,
"Cc1cccc(NC(=O)Cn2cc(COc3ccc(/C=N/N=C/c4ccc(OCc5cn(CC(=O)Nc6cccc(C)c6)nn5)cc4)cc3)nn2)c1 [Compound 10b, 2,2′-((((((1E,1′E)-Hydrazine-1,2-diylidenebis(methaneylylidene))bis(4,1-phenylene))bis(oxy))bis(methylene))bis(1H-1,2,3-triazole-4,1-diyl))bis(N-(m-tolyl)acetamide)]",167 ± 9.46,18.3 ± 4.84,43.42 ± 0.36,62.1 ± 5.43,2.7,15.8 ± 0.2,,,,,,,
